# Assays:
# [1] = target: T1, A1 (Homo sapiens, UniProt P30542); assay: A1 cell-based functional assay
# T1 sequence (P30542 1-326): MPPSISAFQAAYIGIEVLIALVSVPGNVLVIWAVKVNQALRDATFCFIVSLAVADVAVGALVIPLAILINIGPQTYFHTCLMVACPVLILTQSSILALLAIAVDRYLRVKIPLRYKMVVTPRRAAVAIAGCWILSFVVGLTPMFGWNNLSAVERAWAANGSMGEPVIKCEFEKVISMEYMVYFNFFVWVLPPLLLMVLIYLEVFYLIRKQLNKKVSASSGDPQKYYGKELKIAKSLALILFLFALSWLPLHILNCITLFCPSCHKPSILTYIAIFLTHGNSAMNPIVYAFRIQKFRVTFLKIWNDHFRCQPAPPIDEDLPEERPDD
# [2] = target: T2, human adenosine A2a receptors (Homo sapiens, UniProt P29274); assay: Adenosine A2a receptor cell-based functional assay (cAMP-inducible beta-galactosidase reporter); settings: CHO-K1 cells overexpressing human adenosine A2a receptors; antagonist assay with 50 nM NECA
# T2 construct: expressed in transfected cells; host or cells: CHO-K1
# T2 sequence (P29274 whole entry): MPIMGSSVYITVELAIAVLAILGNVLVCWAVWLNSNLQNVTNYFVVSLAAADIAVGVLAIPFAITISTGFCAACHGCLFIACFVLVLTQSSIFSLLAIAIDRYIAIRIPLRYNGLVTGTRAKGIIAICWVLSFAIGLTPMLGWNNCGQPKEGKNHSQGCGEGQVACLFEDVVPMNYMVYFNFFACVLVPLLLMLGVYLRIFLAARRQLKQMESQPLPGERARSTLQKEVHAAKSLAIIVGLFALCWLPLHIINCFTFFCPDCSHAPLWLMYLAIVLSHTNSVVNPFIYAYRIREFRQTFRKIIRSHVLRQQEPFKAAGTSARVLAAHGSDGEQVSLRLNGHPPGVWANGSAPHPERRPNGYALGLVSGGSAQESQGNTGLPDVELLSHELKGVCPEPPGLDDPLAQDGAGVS
# Description: Nonspecific binding was determined by […] NECA. […] Data was analyzed in Microsoft Excel and GraphPad Prism programs. […] For agonist assay, adenosine A2a receptor agonist NECA was subsequently added and cell incubated at 37° C., 5% CO2 for 5 hrs before stopping reaction. In the case of antagonist assay, cells were incubated with antagonists for 5 minutes at R.T. followed by addition of 50 nM NECA. Cells were then incubated at 37° C., 5% CO2 for 5 hrs before stopping experiments by washing cells with PBS twice. […] Color was allowed to develop at 37° C. for 1 h or until reasonable signal appeared. […] Data was analyzed in Microsoft Excel and GraphPad Prism programs.
Ki [1] [µM],Ki [2] [µM],Compound
0.0496,–,"Nc1nc(-c2ccccc2)c2c(n1)-c1cc(OCCN3CCOCC3)ccc1C2=O [A, 2-Amino-8-(2-morpholin-4-yl-ethoxy)-4-phenyl-indeno[1,2-d]pyrimidin-5-one]"
0.0044,0.0004,"Nc1nc(-c2ccccc2)c2c(n1)-c1cc(Cc3cccnc3)ccc1C2=O [C, 2-Amino-4-phenyl-8-pyridin-3-ylmethyl-indeno[1,2-d]pyrimidin-5-one]"
0.0373,0.0131,"CC1CCC(C)N1Cc1ccc2c(c1)-c1nc(N)nc(-c3ccccc3)c1C2=O (centres unmarked) [B, 2-Amino-8-(2,5-dimethyl-pyrrolidin-1-ylmethyl)-4-phenyl-indeno[1,2-d]pyrimidin-5-one]"
